From publication PMC4822313, “Modulating the import of medium-chain alkanes in E. coli through tuned expression of FadL” (Journal of Biological Engineering, 2016) come the findings set out here.

The assay deals with T1, AlkBGT alkane monooxygenase complex (Ectopseudomonas oleovorans, UniProt P12691).
T1 construct: gene alkB; inner membrane AlkB with rubredoxin AlkG and reductase AlkT; expressed in E. coli from pGEc41; with Rubredoxin-2; Rubredoxin-NAD(+) reductase
T1 sequence (P12691 1-401): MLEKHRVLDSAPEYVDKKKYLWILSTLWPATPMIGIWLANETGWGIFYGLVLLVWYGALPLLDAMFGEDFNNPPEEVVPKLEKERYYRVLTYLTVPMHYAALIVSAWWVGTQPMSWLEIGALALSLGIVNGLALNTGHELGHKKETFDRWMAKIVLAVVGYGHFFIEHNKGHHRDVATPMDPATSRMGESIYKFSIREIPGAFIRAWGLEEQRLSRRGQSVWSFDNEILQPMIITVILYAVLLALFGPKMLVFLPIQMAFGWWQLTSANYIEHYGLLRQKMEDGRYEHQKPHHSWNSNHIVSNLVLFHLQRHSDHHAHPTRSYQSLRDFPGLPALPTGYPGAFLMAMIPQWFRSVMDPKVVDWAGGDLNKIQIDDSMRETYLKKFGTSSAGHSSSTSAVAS
Nature of the assay: whole-cell oxidation, GC-FID of products. Type of assay: cell-based. Conditions: 30 % (v/v) octane, 37 °C, E. coli with pGEc41.

Turning to `CCCCCCCCO` [1-octanol], the “whole-cell oxidation, GC-FID of products” value was “The synthesis of 1-octanol and 1-octanal is attributed to AlkB”.
